Data from patent US20240148709A1, “METHODS OF TREATING EYE PAIN AND EYE DISORDERS” (Aisa Pharma, Inc., priority 2022, published 2024).

Tested on: participants with SSc-RP
Test: Scleroderma Health Assessment Questionnaire (SHAQ), Phase 2a study Part A
Format: in vivo, human
Conditions: cilnidipine 10 mg and/or tadalafil 5 mg arms
Method: Part A—double-blind, placebo-controlled, parallel-group, dose selection, will assess the safety and efficacy of two doses of cilnidipine (10 mg and 20 mg), alone and in combination with tadalafil. A total of 36 participants will be randomized to one of six prespecified treatment arms. Refer to FIG. 1 for treatment arms in Part A of the study. Dosing last for 12 (±2) days in which participants will self-administer daily doses of assigned treatment in the morning. Each participant will take one capsule and one tablet to blind the active therapy being received.
The standard, validated, patient reported outcome measures tool for SSc patients, the SHAQ, will be collected at the time points specified in the study schedules (FIG. 2 and FIGS. 3A and 3B) to assess the participant's quality of life. The SHAQ includes a Raynaud's VAS that will also be reported separately.
Results: Patients in the study were administered the Scleroderma Health Assessment Questionnaire (SHAQ) at the time of study entry and during clinic visits following the treatment period. The study is a two-part, parallel arm design, prospective, double-blind, randomized study conducted in Australia (Flinders Medical Center). 27 patients were randomized into the first phase of the study, following which a DSMB meeting was held, which reviewed data on the primary study endpoint and key Raynaud's secondary endpoints. Data on the SHAQ was not available for the DSMB to review. The mITT population, in which any data was available post treatment was 24 patients was the analysis population for this first part of the study. The second part (i.e., part B) of the study will randomize 36 patients in a double blind, randomized, prospective, placebo controlled, crossover study. In the first part (i.e., Part A) of the study for which data is presented, patients were randomized into 6 groups, cilnidipine at two doses (10 and 20 mg) alone and in combination with tadalafil 5 mg, tadalafil 5 mg alone, and placebo. […] The DSMB recommended that the study proceed into its double blind prospective cross overpowered second phase and compare cilnidipine 20 mg alone to placebo.

CN1CC(=O)N2[C@H](c3ccc4c(c3)OCO4)c3[nH]c4ccccc4c3C[C@@H]2C1=O [Tadalafil, tadalafil]
SHAQ Visual Analog Scale-Intestinal Problems, Change from Baseline, Max: 1.80 | SHAQ Visual Analog Scale-Intestinal Problems, Change from Baseline, Mean (SD): −0.125 (1.6800) | SHAQ Visual Analog Scale-Intestinal Problems, Change from Baseline, Median: 0.000 | SHAQ Visual Analog Scale-Intestinal Problems, Change from Baseline, Min: −2.30 | SHAQ Visual Analog Scale-Intestinal Problems, Change from Baseline, Q1: −1.150 | SHAQ Visual Analog Scale-Intestinal Problems, Change from Baseline, Q3: 0.900 | SHAQ Visual Analog Scale-Intestinal Problems, In Clinic Visit (Day 12), Max: 9.20 | SHAQ Visual Analog Scale-Intestinal Problems, In Clinic Visit (Day 12), Mean (SD): 3.025 (4.3162) | SHAQ Visual Analog Scale-Intestinal Problems, In Clinic Visit (Day 12), Median: 1.450 | SHAQ Visual Analog Scale-Intestinal Problems, In Clinic Visit (Day 12), Min: 0.00 | SHAQ Visual Analog Scale-Intestinal Problems, In Clinic Visit (Day 12), Q1: 0.050 | SHAQ Visual Analog Scale-Intestinal Problems, In Clinic Visit (Day 12), Q3: 6.000 | SHAQ Visual Analog Scale-Intestinal Problems, Percent Change from Baseline, Max: 24.3% | SHAQ Visual Analog Scale-Intestinal Problems, Percent Change from Baseline, Mean (SD): −6.92 (35.225) % | SHAQ Visual Analog Scale-Intestinal Problems, Percent Change from Baseline, Median: 0.00% | SHAQ Visual Analog Scale-Intestinal Problems, Percent Change from Baseline, Min: −45.1% | SHAQ Visual Analog Scale-Intestinal Problems, Percent Change from Baseline, Q1: −45.10% | SHAQ Visual Analog Scale-Intestinal Problems, Percent Change from Baseline, Q3: 24.32% | SHAQ Visual Analog Scale-Pain, Change from Baseline, Max: 1.50 | SHAQ Visual Analog Scale-Pain, Change from Baseline, Mean (SD): 1.000 (0.4359) | SHAQ Visual Analog Scale-Pain, Change from Baseline, Median: 0.800 | SHAQ Visual Analog Scale-Pain, Change from Baseline, Min: 0.70 | SHAQ Visual Analog Scale-Pain, Change from Baseline, Q1: 0.700 | SHAQ Visual Analog Scale-Pain, Change from Baseline, Q3: 1.500 | SHAQ Visual Analog Scale-Pain, In Clinic Visit (Day 12), Max: 9.20 | SHAQ Visual Analog Scale-Pain, In Clinic Visit (Day 12), Mean (SD): 5.300 (4.1577) | SHAQ Visual Analog Scale-Pain, In Clinic Visit (Day 12), Median: 5.850 | SHAQ Visual Analog Scale-Pain, In Clinic Visit (Day 12), Min: 0.30 | SHAQ Visual Analog Scale-Pain, In Clinic Visit (Day 12), Q1: 1.900 | SHAQ Visual Analog Scale-Pain, In Clinic Visit (Day 12), Q3: 8.700 | SHAQ Visual Analog Scale-Pain, Percent Change from Baseline, Max: 75.0% | SHAQ Visual Analog Scale-Pain, Percent Change from Baseline, Mean (SD): 31.35 (37.825) % | SHAQ Visual Analog Scale-Pain, Percent Change from Baseline, Median: 10.81% | SHAQ Visual Analog Scale-Pain, Percent Change from Baseline, Min: 8.2% | SHAQ Visual Analog Scale-Pain, Percent Change from Baseline, Q1: 8.24% | SHAQ Visual Analog Scale-Pain, Percent Change from Baseline, Q3: 75.00% | SHAQ Visual Analog Scale-Raynaud's, Change from Baseline, Max: −0.10 | SHAQ Visual Analog Scale-Raynaud's, Change from Baseline, Mean (SD): −0.825 (0.9674) | SHAQ Visual Analog Scale-Raynaud's, Change from Baseline, Median: −0.500 | SHAQ Visual Analog Scale-Raynaud's, Change from Baseline, Min: −2.20 | SHAQ Visual Analog Scale-Raynaud's, Change from Baseline, Q1: −1.500 | SHAQ Visual Analog Scale-Raynaud's, Change from Baseline, Q3: −0.150 | SHAQ Visual Analog Scale-Raynaud's, In Clinic Visit (Day 12), Max: 9.20 | SHAQ Visual Analog Scale-Raynaud's, In Clinic Visit (Day 12), Mean (SD): 4.950 (3.7749) | SHAQ Visual Analog Scale-Raynaud's, In Clinic Visit (Day 12), Median: 5.200 | SHAQ Visual Analog Scale-Raynaud's, In Clinic Visit (Day 12), Min: 0.20 | SHAQ Visual Analog Scale-Raynaud's, In Clinic Visit (Day 12), Q1: 2.200 | SHAQ Visual Analog Scale-Raynaud's, In Clinic Visit (Day 12), Q3: 7.700 | SHAQ Visual Analog Scale-Raynaud's, Percent Change from Baseline, Max: −3.1% | SHAQ Visual Analog Scale-Raynaud's, Percent Change from Baseline, Mean (SD): −19.71 (16.460) % | SHAQ Visual Analog Scale-Raynaud's, Percent Change from Baseline, Median: −20.67% | SHAQ Visual Analog Scale-Raynaud's, Percent Change from Baseline, Min: −34.4% | SHAQ Visual Analog Scale-Raynaud's, Percent Change from Baseline, Q1: −33.85% | SHAQ Visual Analog Scale-Raynaud's, Percent Change from Baseline, Q3: −5.56% | SHAQ alternative disability index, Change from Baseline, Max: 0.00 | SHAQ alternative disability index, Change from Baseline, Mean (SD): −0.094 (0.0625) | SHAQ alternative disability index, Change from Baseline, Median: −0.125 | SHAQ alternative disability index, Change from Baseline, Min: −0.13 | SHAQ alternative disability index, Change from Baseline, Q1: −0.125 | SHAQ alternative disability index, Change from Baseline, Q3: −0.063 | SHAQ alternative disability index, In Clinic Visit (Day 12), Max: 1.00 | SHAQ alternative disability index, In Clinic Visit (Day 12), Mean (SD): 0.375 (0.4787) | SHAQ alternative disability index, In Clinic Visit (Day 12), Median: 0.250 | SHAQ alternative disability index, In Clinic Visit (Day 12), Min: 0.00 | SHAQ alternative disability index, In Clinic Visit (Day 12), Q1: 0.000 | SHAQ alternative disability index, In Clinic Visit (Day 12), Q3: 0.750 | SHAQ alternative disability index, Percent Change from Baseline, Max: −11.1% | SHAQ alternative disability index, Percent Change from Baseline, Mean (SD): −43.70 (48.956) % | SHAQ alternative disability index, Percent Change from Baseline, Median: −20.00% | SHAQ alternative disability index, Percent Change from Baseline, Min: −100.0% | SHAQ alternative disability index, Percent Change from Baseline, Q1: −100.00% | SHAQ alternative disability index, Percent Change from Baseline, Q3: −11.11%
